Laboratory results published in US11077092B2, “Methods of treating diabetes by administering a glucagon receptor antagonist in combination with a cholesterol absorption inhibitor” (Merck Sharp & Dohme Corp., priority 2012, dated 2021).
Values belong to the compound of their own block, whether it stands above or below them.

What was measured:
hGCGR mice [1] = experiment: Combination treatment of GRAs with ezetimibe in hGCGR mice (Example 9); assay type: in vivo; conditions: for plasma total cholesterol: GRA alone 30 mpk QD for 9 days
Description: FIGS. 15A-B illustrate total plasma cholesterol (FIG. 15A) and cholesterol absorption (FIG. 15B) upon sub-chronic treatment of hGCGR mice with vehicle. GRA Compound A (30 mpk), ezetimibe (10 mpk), or Compound A (30 mpk)+ezetimibe (10 mpk) QD for 9 days.
FIGS. 16A-B illustrate total plasma cholesterol (FIG. 16A) and cholesterol absorption (FIG. 16B) upon sub-chronic treatment of hGCGR mice with vehicle, GRA Compound D (30 mpk), Compound E (30 mpk), Compound D (30 mpk)+ezetimibe (10 mpk), or Compound E (30 mpk)+ezetimibe (10 mpk) QD for 9 days.
A similar protocol was deployed in this part of work except ezetimibe was added to the combination treatment groups. Briefly, male hGCGR mice at ˜12 wks of age were treated with vehicle, ezetimibe@10 mpk, Compound A@30 mpk, Compound D@30 mpk, Compound E@30 mpk, Compound A@30 mpk+ezetimibe@10 mpk, Compound D@30 mpk+ezetimibe@10 mpk, Compound E@30 mpk+ezetimibe@10 mpk. Plasma total cholesterol, phytosterol, cholesterol absorption, and cholesterol synthesis were quantified using the same assays as described before.

hGCGR mice [2] = experiment: hGCGR mice, 5 day treatment with GRA Compound A and positive control LXR agonist (Example 2): plasma total cholesterol and LDL-c; assay type: in vivo; conditions: comparing with vehicle
Description: FIG. 6 illustrates plasma levels of total cholesterol and LDL-c in hGCGR mice following a 5 day treatment with GRA Compound A and positive control LXR agonist.
It is important to note that lipoprotein profiles of mouse and human are fundamentally different. In mice, the major lipoproteins are in HDL while in humans the main lipoproteins are in LDL-c. In preclinical studies, hGCGR mice were used as the model for in vivo study. Plasma level of total cholesterol was used as a more reliable parameter to indicate the effect of GRAS on cholesterol metabolism.

hGCGR mice [3] = experiment: Sub-chronic treatment of hGCGR mice with GRA (Example 1): plasma total cholesterol, phytosterols, lathosterol, cholesterol synthesis; assay type: in vivo; conditions: 30 mpk QD for 5 days, vs vehicle
Experimental: Male hGCGR mice (Transgenic Research, 8:295-302, 1999) at ˜12 wks of age maintained on chow diet were treated with vehicle and GRA Compounds A, B, and C at 30 mpk QD for 5 days (n=8). On Day 1, mice were administered the compounds followed by glucagon-induced glucose tolerance test. On Day 5, mice were fasted at 7:30 am. After dosing at ˜9:00 am, the blood glucose was measured at 2-h post dose with a glucometer; see FIG. 1. At 6-h post dose, the tail blood was collected for PK measurement. Mice were euthanized with CO2, and blood was collected by cardiac puncture. The liver was snap frozen in liquid nitrogen with a freezing clamp and saved in −80° C. Plasma was isolated by centrifuging the blood at 8000 rpm for 5 min. The plasma level of total cholesterol was measured by biochemical assay (Wako Chemicals Inc.). The plasma level of lathosterol and phytosterol was measured by LC/MS. To determine cholesterol synthesis. D2O was administered i.p. at 20 ml/kg on 24 h prior to takedown of the mice. The level of D2 in plasma water and plasma cholesterol was assayed by GC/MS for cholesterol synthesis. Asterisks denote statistical significance between treatment and vehicle groups.

hGCGR mice [4] = experiment: Dual tracer study for cholesterol absorption in hGCGR mice (Example 4); assay type: in vivo; conditions: 30 mpk QD for 9 days
Experimental: Male hGCGR mice at ˜12 wks of age maintained on chow or high cholesterol diet (n=8 group) were treated with vehicle and GRA Compound A@30 mpk QD for 9 days. Twenty four-hour feces before treatment and 3 days after treated were collected for fecal cholesterol characterization. On Day 4, mice were dosed with vehicle (0.5% MC, BID) or Compound A followed by administration with D6-cholesterol@15 mpk through p.o. and 13C-cholesterol@15 mpk through i.v. Blood was collected at 4, 24, 48, 72, and 96 h post injection by tail bleeding. For cholesterol synthesis, D2O was administered i.p. at 20 ml/kg on Day 7. On day 8, tail blood was collected for PK and mice were taken down for blood and liver collection. Plasma was isolated from blood by centrifuge at 8000 rpm for 5 min and submitted for GC/MS assay for cholesterol synthesis and absorption. Feces were sent to Taconic for fecal cholesterol assay. Asterisks denote statistical significance between treatment and vehicle groups. * p<0.05, **p<0.01, and ***p<0.001 by ANOVA.

hGCGR mice [5] = experiment: Sub-chronic study of Compound D in hGCGR mice: glucagon-induced glucose tolerance test and plasma phytosterols (Example 5); assay type: in vivo; conditions: 3 and 10 mpk, Day 1
Experimental: Male wild type and hGCGR mice on chow diet were treated with vehicle or GRA Compound D@3 and 10 mpk. On Day 1, mice were administered vehicle or Compound D followed by a glucagon-induced glucose tolerance test. On Day 5, mice were fasted at 7:30 am. After dosing at ˜9:00 am, blood glucose was measured at 2-h post dose with a glucometer. At 6-h post dose, tail blood was collected for a PK measurement. Mice were euthanized with CO2, and blood was collected by cardiac puncture. The liver was snap frozen in liquid nitrogen with a freezing clamp and saved in −80° C.
Plasma was isolated by centrifuging the blood at 8000 rpm for 5 min. Plasma level of total cholesterol was measured by an enzymatic colorimetric method (Wako Chemicals Inc.). Plasma levels of lathosterol and Phytosterol was measured by LC/MS.

type 2 diabetic patients = assay type: in vivo, human
Experimental: In phase 2b trial studies of Compound D, the average plasma levels of LDL-c in the placebo, Compound D@20, 40, 60, 80 mg, and metformin@2 g groups were 112.3, 117.7, 117.3, 110.0, 111.9, and 113.8 mg/dl at baseline, respectively. Plasma levels of LDL-c of the majority of the patients were within the normal range (≤130 mg/dl) according to the guideline of the American Heart Association and Mayo Clinic. After 12-week treatment, the average plasma levels of LDL-c were 105.4, 117.7, 123.2, 119.7, 126.6, and 111.1 mg/dl, respectively.
The following table illustrates the plasma levels of LDL-c in the patients in the phase 2b trial of Compound D. Type 2 diabetic patients with fasting glucose level of 140 to 240 mg/dl were recruited to the phase 2b trial of Compound D. After a 6-wk washout of any previous anti-hyperglycemic agents, patients were treated with placebo, Compound D QD@20, 40, 60, and 80 mg, and metformin BID@1 g for 12 wks. Values in bold are the percentage of patients on Day-1 and wk 12 less than or equal to the designated cutoff values at 130, 110, 100, and 70 mg/dl.
The baseline plasma level of LDL-c (Day -1) was plotted with the % change of LDL-c at week 12 from baseline.
In the 46 patients on Compound D@60 mg in the phase 2b trial, 14 patients were on statins during the 12-wk trial. […] LDL-c (despite the presence of the statin); see FIG. 17.

[6] = ezetimibe 10 mpk combined with Compound A, D or E 30 mpk, QD for 9 days

plasma level of LDL-c (hGCGR mice [2]): significantly increased
plasma level of total cholesterol (hGCGR mice [2]): significantly increased
plasma total cholesterol (hGCGR mice [3]): induced
plasma total cholesterol (hGCGR mice [4]): significantly increased
SMILES: COc1ccc2cc(-c3cc(-c4cc(C(F)(F)F)ccc4F)nn3[C@@H](C)c3ccc(C(=O)NCCC(=O)O)cc3)ccc2c1 [Compound A]
plasma total cholesterol (hGCGR mice [1]): significantly increased or tended to increase

plasma total cholesterol (hGCGR mice [3]): induced
SMILES: Cc1cc(OC(CCC(F)(F)F)c2ccc(C(=O)NCCC(=O)O)cc2)cc(C)c1-c1ccc(C(C)(C)C)cc1 (stereo not shown) [Compound B, 3-{4-[1-(4′-tert-butyl-2,6-dimethyl-biphenyl-4-yloxy)-4,4,4-trifluoro-butyl]-benzoylamino}-propionic acid]

plasma total cholesterol (hGCGR mice [3]): induced
SMILES: Cc1cc(OC(CCC(C)(C)C)c2ccc(C(=O)NCCC(=O)O)cc2)cc(C)c1-c1ccc(C(F)(F)F)cc1 (stereo not shown) [Compound C, 3-{4-[1-(2,6-Dimethyl-4′-trifluoromethyl-biphenyl-4-yloxy)-4,4-dimethyl-pentyl]-benzoylamino}-propionic acid]

SMILES: COc1ccc2cc(-c3cc(-c4cc(Cl)cc(Cl)c4)nn3[C@@H](C)c3ccc(C(=O)NCCC(=O)O)cc3)ccc2c1 [Compound D, N-(4-{(1S)-1-[3-(3,5-dichlorophenyl)-5-(6-methoxy-2-naphthyl)-1H-pyrazol-1-yl]ethyl}benzoyl)-β-alanine]
plasma total cholesterol (hGCGR mice [1]): significantly increased or tended to increase
glucagon-induced glucose excursion (hGCGR mice [5]): suppressed
blood glucose levels (type 2 diabetic patients; 60 mg, 12-wk trial, in most patients): substantial reduction

SMILES: CCC[C@H](c1ccc(C(=O)NCCC(=O)O)cc1)[C@H](c1ccc(Cl)cc1)c1c[nH]c2c(F)cc(C)cc12 [Compound E, N-(4-{(1S)-1-[(R)-(4-chlorophenyl)(7-fluoro-5-methyl-1H-indol-3-yl)methyl]butyl}benzoyl)-β-alanine]
plasma total cholesterol (hGCGR mice [1]): significantly increased or tended to increase

plasma level of LDL-c (hGCGR mice [2]): significantly increased
plasma level of total cholesterol (hGCGR mice [2]): significantly increased
SMILES: O=S(=O)(c1ccccc1)N(CC(F)(F)F)c1ccc(C(O)(C(F)(F)F)C(F)(F)F)cc1 [Compound T, reference compound]

average plasma level of LDL-c (type 2 diabetic patients; human, in vivo): 113.8 mg/dL
increase of LDL-c after 12-week treatment (type 2 diabetic patients; human, in vivo): 2.2%
percentage of patients with plasma LDL-c less than or equal to 110 mg/dl (type 2 diabetic patients; human, in vivo): 54.2 percentage
percentage of patients with plasma LDL-c less than or equal to 130 mg/dl (type 2 diabetic patients; human, in vivo): 70.8 percentage
SMILES: CN(C)C(=N)N=C(N)N [Metformin, metformin, reference compound]

SMILES: O=C1[C@H](CC[C@H](O)c2ccc(F)cc2)[C@@H](c2ccc(O)cc2)N1c1ccc(F)cc1 [ezetimibe, reference compound]
induction of cholesterol absorption caused by GRAs (hGCGR mice [1]; [6]): prevented the induction
induction of total cholesterol caused by GRAs (hGCGR mice [1]; [6]): prevented the induction
